From patent publication US9840481B2, “Allosteric modulators of nicotinic acetylcholine receptors” (MERCK SHARP & DOHME CORP., priority 2016, dated 2017)
Like-named read-outs stand apart in the source and are kept apart here.

Biological target: T1, human α7 nAChR stably expressed in a HEK cell line (with human RIC-3) (Homo sapiens, UniProt P36544)
T1 construct: PrecisION hnAChR α7/RIC-3
Experiment: Automated patch-clamp electrophysiology functional assay (Assay A), IonFlux HT, whole-cell population patch
Format: cell-based
Outline: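 Whole-cell population patch clamp (IonFlux HT) used HEK cells stably co-expressing human α7 and RIC-3, held at −60 mV at room temperature. Compounds were applied alone (agonism) or with 40 μM acetylcholine (potentiation), three ascending concentrations per recording. Currents were quantified relative to a 40 μM acetylcholine reference response, giving EC50.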

[1] = automated patch-clamp electrophysiology functional assay (Assay A), potency class by EC50, read-out: α7 nAChR Potency
[2] = electrophysiology EC50, HEK cells expressing human α7/RIC-3, 40 μM acetylcholine, holding potential −60 mV, room temperature, read-out: α7 nAChR EC50

T1 sequence (P36544 23-502): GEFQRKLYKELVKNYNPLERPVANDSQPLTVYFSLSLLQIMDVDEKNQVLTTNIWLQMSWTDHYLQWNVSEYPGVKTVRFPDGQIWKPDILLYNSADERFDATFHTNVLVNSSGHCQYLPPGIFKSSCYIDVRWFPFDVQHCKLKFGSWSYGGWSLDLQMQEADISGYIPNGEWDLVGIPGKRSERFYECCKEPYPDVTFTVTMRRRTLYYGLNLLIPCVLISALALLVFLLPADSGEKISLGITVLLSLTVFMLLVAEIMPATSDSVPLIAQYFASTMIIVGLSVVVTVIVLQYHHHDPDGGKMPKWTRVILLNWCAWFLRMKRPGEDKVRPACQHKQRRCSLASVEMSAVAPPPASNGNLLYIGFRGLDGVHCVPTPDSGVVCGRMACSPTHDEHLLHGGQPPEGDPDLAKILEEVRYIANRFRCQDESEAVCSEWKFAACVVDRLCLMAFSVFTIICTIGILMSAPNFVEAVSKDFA

| Structure (SMILES) | EC50 [1] [nM] | EC50 [2] [nM] |
| --- | --- | --- |
| NS(=O)(=O)c1ccc([C@@H]2C[C@H]2c2nc(C3(c4ccccc4)CC3)no2)cc1 [Example D23] | 500 to 5000 | 2100 |
| NS(=O)(=O)c1ccc([C@@H]2C[C@H]2c2nc(-c3cccnc3C3CC3)no2)cc1 [Example D24] | 100 to 500 | 230 |
| CC1(C)[C@@H](c2ccc(S(N)(=O)=O)cc2)[C@@H]1c1nc(-c2cccnc2C(F)(F)F)no1 [Example D30] | 500 to 5000 | 1200 |
| CC1(C)[C@@H](c2ccc(S(N)(=O)=O)cc2)[C@@H]1c1nc(C2CCCCC2O)no1 (stereo partly drawn) [Example D32] | 500 to 5000 |  |
| CC(C)(F)c1noc([C@H]2[C@H](c3ccc(S(N)(=O)=O)cc3)C2(F)F)n1 [Example D35] | 100 to 500 | 410 |
| CC1(C)[C@H](c2ccc(S(N)(=O)=O)cc2)[C@H]1c1nnc(-c2c(F)cccc2F)o1 [Example F1] | 500 to 5000 |  |
| CC1(C)[C@H](c2ccc(S(N)(=O)=O)cc2)[C@H]1c1nnc(-c2c(F)cccc2C(F)(F)F)o1 [Example F3] | 500 to 5000 | 4700 |
| CC1(C)[C@H](c2ccc(S(N)(=O)=O)cc2)[C@H]1c1nnc(-c2ccccc2)s1 [Example F4] | 100 to 500 | 420 |
| CC1(C)[C@H](c2ccc(S(N)(=O)=O)cc2)[C@H]1c1nnc(-c2ccccc2)[nH]1 [Example F5] | 500 to 5000 | 1000 |
| CC1(C)[C@@H](c2ccc(S(N)(=O)=O)cc2)[C@@H]1c1nnc(-c2cccc(C(F)(F)F)c2)o1 [Example G2] | 500 to 5000 |  |
| CC1(C)[C@@H](c2ccc(S(N)(=O)=O)cc2)[C@@H]1c1nnc(-c2cccc(F)c2)o1 [Example G3] | 500 to 5000 | 740 |
| CC1(C)[C@@H](c2ccc(S(N)(=O)=O)cc2)[C@@H]1c1nnc(-c2cc(F)ccc2C(F)(F)F)o1 [Example G6] | 500 to 5000 | 1100 |
| CC(C)c1nnc([C@H]2[C@H](c3ccc(S(N)(=O)=O)cc3)C2(C)C)o1 [Example G9] | 500 to 5000 |  |
| CC1(C)[C@@H](c2ccc(S(N)(=O)=O)cc2)[C@@H]1c1nnc(-c2cccnc2C2CC2)o1 [Example G12] | 500 to 5000 |  |
| CC1(C)[C@@H](c2ccc(S(N)(=O)=O)cc2)[C@@H]1c1nnc(C2CCCCC2)s1 [Example G13] | 500 to 5000 | 2200 |
| CC1(C)[C@@H](c2ccc(S(N)(=O)=O)cc2)[C@@H]1c1nnc(C2CCCC2)s1 [Example G14] | 500 to 5000 | 920 |
| NS(=O)(=O)c1ccc([C@@H]2C[C@H]2c2nnc(C3CCCC3)s2)cc1 [Example G16] | 500 to 5000 |  |
| CC1(C)[C@@H](c2ccc(S(N)(=O)=O)cc2)[C@@H]1c1nnc(-c2c(F)cccc2C(F)(F)F)o1 [Example G17] | 500 to 5000 | 950 |
| CC1(C)[C@@H](c2ccc(S(N)(=O)=O)cc2)[C@@H]1c1noc(-c2ccccc2)n1 [Example H1] | 100 to 500 | 260 |

| Structure (SMILES) | EC50 [1] [nM] | EC50 [2] [nM] |
| --- | --- | --- |
| CC1(C)[C@@H](c2ccc(S(N)(=O)=O)cc2)[C@@H]1c1noc(-c2ccc(F)cc2Cl)n1 [Example H2] | 500 to 5000 | 510 |
| CC1(C)[C@@H](c2ccc(S(N)(=O)=O)cc2)[C@@H]1c1noc(-c2c(F)cc(F)cc2F)n1 [Example H3] | 100 to 500 | 130 |
| CC1(C)[C@@H](c2ccc(S(N)(=O)=O)cc2)[C@@H]1c1noc(-c2ccc(F)c(OC(F)(F)F)c2)n1 [Example H4] | 500 to 5000 |  |
| CC1(C)[C@@H](c2ccc(S(N)(=O)=O)cc2)[C@@H]1c1noc(-c2cccc(F)c2)n1 [Example H5] | 500 to 5000 | 1500 |
| CC1(C)[C@@H](c2ccc(S(N)(=O)=O)cc2)[C@@H]1c1noc(-c2cc(N3CCOC3=O)ccc2F)n1 [Example H7] | 500 to 5000 | 2400 |
| CC1(C)[C@@H](c2ccc(S(N)(=O)=O)cc2)[C@@H]1c1noc(-c2cccc(C3CC3)c2)n1 [Example H9] | 500 to 5000 | 1400 |
| C#Cc1ccc(-c2nc([C@H]3[C@H](c4ccc(S(N)(=O)=O)cc4)C3(C)C)no2)cc1 [Example H11] | 500 to 5000 | 1900 |
| CC1(C)[C@@H](c2ccc(S(N)(=O)=O)cc2)[C@@H]1c1noc(-c2ccc(OC(F)(F)F)cc2)n1 [Example H13] | 500 to 5000 |  |
| CC1(C)[C@@H](c2ccc(S(N)(=O)=O)cc2)[C@@H]1c1noc(-c2cccc(OC(F)(F)C(F)F)c2)n1 [Example H14] | 100 to 500 |  |
| CC1(C)[C@@H](c2ccc(S(N)(=O)=O)cc2)[C@@H]1c1noc(Cc2ccc(F)cc2F)n1 [Example I1] | 100 to 500 |  |
| CC1(C)[C@@H](c2ccc(S(N)(=O)=O)cc2)[C@@H]1c1noc(C2CCc3cc(F)ccc32)n1 (stereo partly drawn) [Example I3] | ≤ 100 | 96 |
| CC1(C)[C@@H](c2ccc(S(N)(=O)=O)cc2)[C@@H]1c1noc(Cn2c(=O)oc3ccc(Cl)cc32)n1 [Example I5] | 500 to 5000 |  |
| CC1(C)[C@@H](c2ccc(S(N)(=O)=O)cc2)[C@@H]1c1noc(-c2cscn2)n1 [Example I6] | 500 to 5000 |  |
| Cc1ncoc1-c1nc([C@H]2[C@H](c3ccc(S(N)(=O)=O)cc3)C2(C)C)no1 [Example I7] | 500 to 5000 | 710 |
| CC1(C)[C@@H](c2ccc(S(N)(=O)=O)cc2)[C@@H]1c1noc(-c2c[nH]c(C3CC3)n2)n1 [Example I8] | 500 to 5000 | 4400 |
| Cn1ccc(-c2nc([C@H]3[C@H](c4ccc(S(N)(=O)=O)cc4)C3(C)C)no2)c1 [Example I10] | 500 to 5000 |  |
| CC1(C)[C@@H](c2ccc(S(N)(=O)=O)cc2)[C@@H]1c1noc(C2(c3cnccn3)CC2)n1 [Example I12] | 500 to 5000 |  |
| CC1(C)[C@@H](c2ccc(S(N)(=O)=O)cc2)[C@@H]1c1noc(-c2cc(C(F)(F)F)c3ccccc3n2)n1 [Example I13] | 500 to 5000 | 3100 |

The remaining lines, values ahead:

| EC50 [1] [nM] | EC50 [2] [nM] | Structure (SMILES) |
| --- | --- | --- |
| 100 to 500 | 130 | NS(=O)(=O)c1ccc([C@@H]2C[C@H]2c2nc(C3CCCC3)no2)cc1 [Example D21] |
| 500 to 5000 |  | NS(=O)(=O)c1ccc([C@@H]2C[C@H]2c2nc(-c3cnccc3C(F)(F)F)no2)cc1 [Example D22] |
| 500 to 5000 |  | NS(=O)(=O)c1ccc([C@@H]2C[C@H]2c2nc(-c3cnccc3C(F)(F)F)no2)cc1 [Example D25] |
| 500 to 5000 | 810 | NS(=O)(=O)c1ccc([C@@H]2C[C@H]2c2nc(Cc3ccc(F)cc3F)no2)cc1 [Example D26] |
| 100 to 500 | 200 | CC1(C)[C@@H](c2ccc(S(N)(=O)=O)cc2)[C@@H]1c1nc(CC2CC2)no1 [Example D27] |
| 500 to 5000 |  | NS(=O)(=O)c1ccc([C@@H]2C[C@H]2c2nc(CC3CC3)no2)cc1 [Example D28] |
| 500 to 5000 |  | CC1(C)[C@@H](c2ccc(S(N)(=O)=O)cc2)[C@@H]1c1nc(-c2ccc(C(F)(F)F)nc2)no1 [Example D29] |
| 500 to 5000 |  | Cc1ncoc1-c1noc([C@@H]2C[C@H]2c2ccc(S(N)(=O)=O)cc2)n1 [Example D31] |
| 100 to 500 | 210 | CC1(C)[C@@H](c2ccc(S(N)(=O)=O)cc2)[C@@H]1c1nc(C2(C(F)(F)F)CC2)no1 [Example D33] |
| 500 to 5000 |  | COc1ccc(Cl)cc1-c1noc(C2C(c3ccc(S(N)(=O)=O)cc3)C2(F)F)n1 (stereo not drawn) [Example E2] |
| 500 to 5000 |  | CC1(C)[C@H](c2ccc(S(N)(=O)=O)cc2)[C@H]1c1nnc(-c2cc(F)ccc2C(F)(F)F)o1 [Example F2] |
| 500 to 5000 |  | CC1(C)[C@H](c2ccc(S(N)(=O)=O)cc2)[C@H]1c1nnc(-c2cccnc2C2CC2)o1 [Example F6] |
| 500 to 5000 | 1800 | CC1(C)[C@@H](c2ccc(S(N)(=O)=O)cc2)[C@@H]1c1nnc(-c2ccccc2)o1 [Example G1] |
| 500 to 5000 |  | CC1(C)[C@@H](c2ccc(S(N)(=O)=O)cc2)[C@@H]1c1nnc(-c2ccccc2C(F)(F)F)o1 [Example G4] |
| 500 to 5000 | 1300 | CC1(C)[C@@H](c2ccc(S(N)(=O)=O)cc2)[C@@H]1c1nnc(-c2c(F)cccc2F)o1 [Example G5] |
| 500 to 5000 | 1800 | CC1(C)[C@@H](c2ccc(S(N)(=O)=O)cc2)[C@@H]1c1nnc(-c2ccccc2)s1 [Example G7] |
| 500 to 5000 | 630 | CC1(C)[C@@H](c2ccc(S(N)(=O)=O)cc2)[C@@H]1c1nnc(C2CCCC2)o1 [Example G10] |
| 500 to 5000 | 4500 | CC1(C)[C@@H](c2ccc(S(N)(=O)=O)cc2)[C@@H]1c1nnc(CC2CC2)o1 [Example G11] |
| 500 to 5000 |  | CC1(C)[C@@H](c2ccc(S(N)(=O)=O)cc2)[C@@H]1c1nnc(C2CC2)s1 [Example G15] |
| 100 to 500 |  | Cc1cccc(F)c1-c1nc([C@H]2[C@H](c3ccc(S(N)(=O)=O)cc3)C2(C)C)no1 [Example H6] |
| 100 to 500 | 110 | CC1(C)[C@@H](c2ccc(S(N)(=O)=O)cc2)[C@@H]1c1noc(-c2c(F)cccc2F)n1 [Example H8] |
| 100 to 500 | 240 | CC1(C)[C@@H](c2ccc(S(N)(=O)=O)cc2)[C@@H]1c1noc(-c2cc(F)cc(F)c2F)n1 [Example H10] |
| 500 to 5000 | 1200 | CC1(C)[C@@H](c2ccc(S(N)(=O)=O)cc2)[C@@H]1c1noc(-c2ccc(C#N)cc2)n1 [Example H12] |
| 100 to 500 | 190 | NS(=O)(=O)c1ccc([C@@H]2C[C@H]2c2noc(-c3cccc(F)c3)n2)cc1 [Example H15] |
| 100 to 500 | 170 | CC1(C)[C@@H](c2ccc(S(N)(=O)=O)cc2)[C@@H]1c1noc(C2(c3cc(F)ccc3F)CCC2)n1 [Example I4] |
| 500 to 5000 | 1800 | CC1(C)[C@@H](c2ccc(S(N)(=O)=O)cc2)[C@@H]1c1noc(C2CCN(C3CC3)CC2)n1 [Example I9] |
| 5000 to 50000 |  | CC(c1nc([C@H]2[C@H](c3ccc(S(N)(=O)=O)cc3)C2(C)C)no1)n1ccnc1 (stereo partly drawn) [Example I11] |
